Measured values reported in patent US9651864B2, “Negative resist composition, method for producing relief pattern using the same, and electronic component using the same” (DAI NIPPON PRINTING CO., LTD., priority 2010, dated 2017).

Experiments:
Assay type in all cases: physicochemical
[1] = Glass transition temperature (Tg) by differential thermal analyzer DSC-60; conditions: second heating to 200° C. at 10° C./min; deemed 200° C. or more when no inflection point until 200° C.
Description: Glass transition temperature (Tg): an intersection point of two tangents to smooth curving lines before and after the inflection temperature point of a DTA curve, the DTA curve being obtained when a material for forming a pattern of about 4 mg was heated to 200° C. at a rate of 10° C./min, cooled to room temperature and then heated to 200° C. at a rate of 10° C./min again, with a differential thermal analyzer (DSC-60 manufactured by Shimadzu Corporation).
Tg was deemed as 200° C. or more when no inflection point was found on the DTA curve until 200° C., which point corresponds to glass transition temperature.

[2] = Evaluation of solvent solubility of phenolic compound in typical resist solvents; conditions: (D)-3: Cyclopentanone; 1 or 5 wt % at 23° C.
[3] = as above; design: key to Solubility in (D)-2: ⊚: The material for forming a pattern was dissolved at a concentration of 5 wt % at 23° C.; ◯: The material for forming a pattern was dissolved at a concentration of 1 wt % at 23° C.; X: The material for forming a pattern was insoluble; conditions: for Solubility in (D)-1: (D)-1: Propylene glycol monomethylether; for Solubility in (D)-1 / Solubility in (D)-2: 1 or 5 wt % at 23° C.; for Solubility in (D)-2: (D)-2: Propylene glycol monomethyl ether acetate
Description: The phenolic compounds (A-01 to A-15) obtained in Synthesis Examples 1 to 15 and the comparative phenolic compounds (CA-01 and CA-02) were added to the following typical resist solvents so as to have a concentration of 1 or 5 wt % at 23° C., followed by stirring:
(D)-1: Propylene glycol monomethylether
(D)-2: Propylene glycol monomethyl ether acetate
The thus-obtained mixtures were evaluated based on the following evaluation criterion.
? : The material for forming a pattern was dissolved at a concentration of 5 wt % at 23° C.,
∘: The material for forming a pattern was dissolved at a concentration of 1 wt % at 23° C.
x: The material for forming a pattern was insoluble.

Row | SMILES | Glass Transition Temperature [1] | Solubility in (D)-3 [2] | Solubility in (D)-1 [3] | Solubility in (D)-2 [3] | solubility in resist solvents (in words) ([3]; summary of Table 3) | solubility in propylene glycol monomethyl ether [3]
1 | CC(C)(c1cc(CO)c(O)c(CO)c1)c1cc(CO)c(O)c(CO)c1 [CA-01, 2,2-bis(4-hydroxy-3,5-dihydroxymethylphenyl)propane, reference compound] | 27 °C | ◯ (The material for forming a pattern was dissolved at a concentration of 1 wt % at 23° C.) | ◯ (The material for forming a pattern was dissolved at a concentration of 1 wt % at 23° C.) | X | dissolve in only specific solvents | –
2 | CC(C)(C1CCC(c2cc(CO)c(O)c(CO)c2)(c2cc(CO)c(O)c(CO)c2)CC1)C1CCC(c2cc(CO)c(O)c(CO)c2)(c2cc(CO)c(O)c(CO)c2)CC1 [Compound A-01] | 63 °C | ⊚ (The material for forming a pattern was dissolved at a concentration of 5 wt % at 23° C.) | ◯ (The material for forming a pattern was dissolved at a concentration of 1 wt % at 23° C.) | ◯ (The material for forming a pattern was dissolved at a concentration of 1 wt % at 23° C.) | – | 2%
3 | Cc1cc(C(c2cc(C)c(O)c(CO)c2)C(c2cc(C)c(O)c(CO)c2)c2cc(C)c(O)c(CO)c2)cc(CO)c1O [Compound A-02] | 200 °C or | ⊚ (The material for forming a pattern was dissolved at a concentration of 5 wt % at 23° C.) | ⊚ (The material for forming a pattern was dissolved at a concentration of 5 wt % at 23° C.) | ◯ (The material for forming a pattern was dissolved at a concentration of 1 wt % at 23° C.) | – | 5%
4 | OCc1cc(C2(c3cc(CO)c(O)c(CO)c3)c3ccccc3-c3ccccc32)cc(CO)c1O [Compound A-04] | 62 °C | ⊚ (The material for forming a pattern was dissolved at a concentration of 5 wt % at 23° C.) | ⊚ (The material for forming a pattern was dissolved at a concentration of 5 wt % at 23° C.) | ⊚ (The material for forming a pattern was dissolved at a concentration of 5 wt % at 23° C.) | – | –
5 | CC(C)(c1cccc(C(C)(C)c2cc(CO)c(O)c(CO)c2)c1)c1cc(CO)c(O)c(CO)c1 [Compound A-05] | 135 °C | ⊚ (The material for forming a pattern was dissolved at a concentration of 5 wt % at 23° C.) | ⊚ (The material for forming a pattern was dissolved at a concentration of 5 wt % at 23° C.) | ◯ (The material for forming a pattern was dissolved at a concentration of 1 wt % at 23° C.) | – | –
6 | OCc1cc(C(c2cc(CO)c(O)c(C3CCCCC3)c2)C(c2cc(CO)c(O)c(C3CCCCC3)c2)c2cc(CO)c(O)c(C3CCCCC3)c2)cc(C2CCCCC2)c1O [Compound A-09] | 200 °C or | ⊚ (The material for forming a pattern was dissolved at a concentration of 5 wt % at 23° C.) | ⊚ (The material for forming a pattern was dissolved at a concentration of 5 wt % at 23° C.) | ⊚ (The material for forming a pattern was dissolved at a concentration of 5 wt % at 23° C.) | – | –
7 | COCc1cc(C(c2cc(C)c(O)c(COC)c2)C(c2cc(C)c(O)c(COC)c2)c2cc(C)c(O)c(COC)c2)cc(C)c1O [Compound A-12] | 200 °C or | ⊚ (The material for forming a pattern was dissolved at a concentration of 5 wt % at 23° C.) | ⊚ (The material for forming a pattern was dissolved at a concentration of 5 wt % at 23° C.) | ⊚ (The material for forming a pattern was dissolved at a concentration of 5 wt % at 23° C.) | – | –
8 | Cc1cc(C2(c3cc(C)c(O)c(CO)c3)CCC(C(C)(C)C3CCC(c4cc(C)c(O)c(CO)c4)(c4cc(C)c(O)c(CO)c4)CC3)CC2)cc(CO)c1O [Compound A-13] | 200 °C or | ⊚ (The material for forming a pattern was dissolved at a concentration of 5 wt % at 23° C.) | ⊚ (The material for forming a pattern was dissolved at a concentration of 5 wt % at 23° C.) | ⊚ (The material for forming a pattern was dissolved at a concentration of 5 wt % at 23° C.) | – | –
9 | c1cc(C(c2ccc(OCC3CO3)cc2)C(c2ccc(OCC3CO3)cc2)c2ccc(OCC3CO3)cc2)ccc1OCC1CO1 (stereo not drawn) [TEP-G, reference compound] | 47 °C | – | – | – | – | –
